Measurements reported in PubChem BioAssay AID248 (DTP/NCI, 2004).
Several values for one entry are separate records, joined by “and”; a condition that tells them apart may be missing. Equal entries are not always repeated. Inconclusive results and toxic doses are left out.

Tested on: L1210 leukemia ip in BDF1 mice, survival T/C
Experiment: NCI In Vivo Anticancer Drug Screen. Data for tumor model L1210 Leukemia (intraperitoneal) in B6D2F1 (BDF1) mice
Details: endpoint: mean survival time, higher = longer survival
How it was run: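 Survival endpoint. Drug-treated group vs vehicle group, expressed as T divided by C. Tumor passaged by transplantation.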

`Nc1nc(=S)c2ncn(C3OC(CO)C(O)C3O)c2[nH]1` (centres undefined) was tested, and the T/C (dose: 0.09 mg/kg/injection, schedule: Q01DX Z (ip), vehicle: carboxymethylcellulose (CMC)) was 109 % of control, the T/C (dose: 0.18 mg/kg/injection, schedule: Q01DX Z (ip), vehicle: carboxymethylcellulose (CMC)) was 124 % of control and the T/C (dose: 0.25 mg/kg/injection, schedule: Q01DX015 (ip), vehicle: carboxymethylcellulose (CMC)) was 111 % of control and 115 % of control. For the same compound, the T/C (dose: 0.25 mg/kg/injection, schedule: Q01DX015 (ip), vehicle: other) was 110 % of control, the T/C (dose: 0.37 mg/kg/injection, schedule: Q01DX Z (ip), vehicle: carboxymethylcellulose (CMC)) was 121 % of control and the T/C (dose: 0.4 mg/kg/injection, schedule: Q01DX009 (sc), vehicle: carboxymethylcellulose (CMC)) was 98 % of control. For the same compound, the T/C (dose: 0.44 mg/kg/injection, schedule: Q01DX015 (ip), vehicle: carboxymethylcellulose (CMC)) was 113 % of control, the T/C (dose: 0.5 mg/kg/injection, schedule: Q01DX015 (ip), vehicle: carboxymethylcellulose (CMC)) was 123 % of control and the T/C (dose: 0.5 mg/kg/injection, schedule: Q01DX015 (ip), vehicle: other) was 123 % of control. The T/C (dose: 0.5 mg/kg/injection, schedule: Q01DX Z (ip), vehicle: carboxymethylcellulose (CMC)) was 151 % of control, the T/C (dose: 0.62 mg/kg/injection, schedule: Q01DX015 (oral), vehicle: carboxymethylcellulose (CMC)) was 112 % of control and the T/C (dose: 0.67 mg/kg/injection, schedule: Q01DX015 (ip), vehicle: carboxymethylcellulose (CMC)) was 113 % of control. The T/C (dose: 0.8 mg/kg/injection, schedule: Q01DX009 (oral), vehicle: carboxymethylcellulose (CMC)) was 105 % of control, the T/C (dose: 0.8 mg/kg/injection, schedule: Q01DX009 (sc), vehicle: carboxymethylcellulose (CMC)) was 102 % of control and the T/C (dose: 1.0 mg/kg/injection, schedule: Q01DX015 (ip), vehicle: other) was 124 % of control. The T/C (dose: 1.0 mg/kg/injection, schedule: Q01DX Z (ip), vehicle: carboxymethylcellulose (CMC)) was 157 % of control, the T/C (dose: 1.25 mg/kg/injection, schedule: Q01DX015 (oral), vehicle: carboxymethylcellulose (CMC)) was 124 % of control and the T/C (dose: 1.56 mg/kg/injection, schedule: Q01DX009 (ip), vehicle: saline) was 152 % of control and 158 % of control. For the same compound, the T/C (dose: 1.8 mg/kg/injection, schedule: Q## X032 (ip), vehicle: carboxymethylcellulose (CMC)) was 120 % of control, the T/C (dose: 2.16 mg/kg/injection, schedule: Q01DX Z (ip), vehicle: carboxymethylcellulose (CMC)) was 152 % of control and the T/C (dose: 2.16 mg/kg/injection, schedule: Q01DX Z (oral), vehicle: carboxymethylcellulose (CMC)) was 114 % of control. The T/C (dose: 2.7 mg/kg/injection, schedule: Q02DX008 (ip), vehicle: carboxymethylcellulose (CMC)) was 152 % of control, the T/C (dose: 3.0 mg/kg/injection, schedule: Q01DX009 (ip), vehicle: saline) was 104 % of control and the T/C (dose: 3.0 mg/kg/injection, schedule: Q01DX Z (ip), vehicle: carboxymethylcellulose (CMC)) was 152 % of control. The T/C (dose: 4.0 mg/kg/injection, schedule: Q01DX015 (ip), vehicle: carboxymethylcellulose (CMC)) was 120 % of control, the T/C (dose: 4.0 mg/kg/injection, schedule: Q01DX Z (ip), vehicle: carboxymethylcellulose (CMC)) was 108 % of control and the T/C (dose: 4.0 mg/kg/injection, schedule: Q02DX008 (ip), vehicle: carboxymethylcellulose (CMC)) was 153 % of control. For the same compound, the T/C (dose: 4.2 mg/kg/injection, schedule: Q## X032 (ip), vehicle: carboxymethylcellulose (CMC)) was 123 % of control, the T/C (dose: 4.6 mg/kg/injection, schedule: Q01DX009 (ip), vehicle: saline) was 89 % of control and the T/C (dose: 5.5 mg/kg/injection, schedule: Q## X003 (ip), vehicle: carboxymethylcellulose (CMC)) was 156 % of control. The T/C (dose: 5.8 mg/kg/injection, schedule: Q02DX008 (ip), vehicle: carboxymethylcellulose (CMC)) was 156 % of control, the T/C (dose: 6.0 mg/kg/injection, schedule: Q01DX Z (ip), vehicle: carboxymethylcellulose (CMC)) was 122 % of control and the T/C (dose: 6.0 mg/kg/injection, schedule: Q01DX Z (oral), vehicle: carboxymethylcellulose (CMC)) was 150 % of control. The T/C (dose: 6.25 mg/kg/injection, schedule: Q01DX009 (ip), vehicle: saline) was 118 % of control, the T/C (dose: 6.4 mg/kg/injection, schedule: Q## X032 (ip), vehicle: carboxymethylcellulose (CMC)) was 154 % of control and the T/C (dose: 7.0 mg/kg/injection, schedule: Q01DX Z (ip), vehicle: carboxymethylcellulose (CMC)) was 116 % of control. For the same compound, the T/C (dose: 8.0 mg/kg/injection, schedule: Q01DX Z (ip), vehicle: carboxymethylcellulose (CMC)) was 110 % of control, the T/C (dose: 8.8 mg/kg/injection, schedule: Q02DX008 (ip), vehicle: carboxymethylcellulose (CMC)) was 150 % of control and the T/C (dose: 9.0 mg/kg/injection, schedule: Q01DX Z (ip), vehicle: saline) was 105 % of control and 108 % of control. The T/C (dose: 10.0 mg/kg/injection, schedule: Q01DX Z (oral), vehicle: carboxymethylcellulose (CMC)) was 119 % of control, the T/C (dose: 10.0 mg/kg/injection, schedule: Q## X004 (ip), vehicle: carboxymethylcellulose (CMC)) was 158 % of control and the T/C (dose: 12.5 mg/kg/injection, schedule: Q01DX009 (ip), vehicle: saline) was 108 % of control and 123 % of control. The T/C (dose: 13.0 mg/kg/injection, schedule: Q01DX Z (ip), vehicle: saline) was 108 % of control, the T/C (dose: 13.0 mg/kg/injection, schedule: Q02DX008 (ip), vehicle: carboxymethylcellulose (CMC)) was 119 % of control and the T/C (dose: 14.0 mg/kg/injection, schedule: Q## X032 (ip), vehicle: carboxymethylcellulose (CMC)) was 155 % of control. For the same compound, the T/C (dose: 16.0 mg/kg/injection, schedule: Q01DX009 (ip), vehicle: saline) was 104 % of control, the T/C (dose: 16.8 mg/kg/injection, schedule: Q01DX Z (oral), vehicle: carboxymethylcellulose (CMC)) was 108 % of control and the T/C (dose: 18.8 mg/kg/injection, schedule: Q01DX009 (ip), vehicle: saline) was 119 % of control. For the same compound, the T/C (dose: 18.8 mg/kg/injection, schedule: Q01DX Z (ip), vehicle: saline) was 103 % of control, the T/C (dose: 20.0 mg/kg/injection, schedule: Q01DX Z (ip), vehicle: saline) was 109 % of control and the T/C (dose: 20.0 mg/kg/injection, schedule: Q01DX Z (oral), vehicle: carboxymethylcellulose (CMC)) was 122 % of control. The T/C (dose: 22.0 mg/kg/injection, schedule: Q## X032 (ip), vehicle: carboxymethylcellulose (CMC)) was 155 % of control, the T/C (dose: 22.5 mg/kg/injection, schedule: Q01DX001 (oral), vehicle: carboxymethylcellulose (CMC)) was 154 % of control and the T/C (dose: 25.0 mg/kg/injection, schedule: Q01DX005 (ip), vehicle: saline) was 94 % of control and 111 % of control and 117 % of control. For the same compound, the T/C (dose: 25.0 mg/kg/injection, schedule: Q01DX009 (ip), vehicle: saline) was 100 % of control and 120 % of control and 94 % of control, the T/C (dose: 30.0 mg/kg/injection, schedule: Q01DX Z (ip), vehicle: saline) was 93 % of control and the T/C (dose: 32.0 mg/kg/injection, schedule: Q## X032 (ip), vehicle: carboxymethylcellulose (CMC)) was 119 % of control. For the same compound, the T/C (dose: 36.0 mg/kg/injection, schedule: Q## X016 (ip), vehicle: carboxymethylcellulose (CMC)) was 122 % of control, the T/C (dose: 37.5 mg/kg/injection, schedule: Q01DX009 (ip), vehicle: saline) was 108 % of control and the T/C (dose: 37.5 mg/kg/injection, schedule: Q01DX010 (ip), vehicle: saline) was 97 % of control. For the same compound, the T/C (dose: 40.0 mg/kg/injection, schedule: Q01DX Z (oral), vehicle: carboxymethylcellulose (CMC)) was 101 % of control, the T/C (dose: 45.0 mg/kg/injection, schedule: Q01DX001 (ip), vehicle: carboxymethylcellulose (CMC)) was 155 % of control and the T/C (dose: 45.0 mg/kg/injection, schedule: Q02DX008 (ip), vehicle: carboxymethylcellulose (CMC)) was 157 % of control. The T/C (dose: 50.0 mg/kg/injection, schedule: Q01DX001 (ip), vehicle: saline) was 96 % of control, the T/C (dose: 50.0 mg/kg/injection, schedule: Q01DX005 (ip), vehicle: saline) was 111 % of control and the T/C (dose: 67.0 mg/kg/injection, schedule: Q## X004 (ip), vehicle: carboxymethylcellulose (CMC)) was 151 % of control. The T/C (dose: 75.0 mg/kg/injection, schedule: Q01DX009 (ip), vehicle: saline) was 96 % of control, the T/C (dose: 90.0 mg/kg/injection, schedule: Q01DX001 (sc), vehicle: carboxymethylcellulose (CMC)) was 156 % of control and the T/C (dose: 100.0 mg/kg/injection, schedule: Q01DX001 (ip), vehicle: carboxymethylcellulose (CMC)) was 155 % of control. The T/C (dose: 100.0 mg/kg/injection, schedule: Q01DX001 (ip), vehicle: saline) was 102 % of control, the T/C (dose: 100.0 mg/kg/injection, schedule: Q01DX009 (ip), vehicle: saline) was 104 % of control and the T/C (dose: 144.0 mg/kg/injection, schedule: Q01DX001 (ip), vehicle: carboxymethylcellulose (CMC)) was 158 % of control. For the same compound, the T/C (dose: 150.0 mg/kg/injection, schedule: Q01DX001 (ip), vehicle: carboxymethylcellulose (CMC)) was 157 % of control, the T/C (dose: 180.0 mg/kg/injection, schedule: Q01DX001 (ip), vehicle: carboxymethylcellulose (CMC)) was 154 % of control and the T/C (dose: 180.0 mg/kg/injection, schedule: Q## X002 (ip), vehicle: carboxymethylcellulose (CMC)) was 109 % of control. For the same compound, the T/C (dose: 200.0 mg/kg/injection, schedule: Q01DX001 (ip), vehicle: saline) was 98 % of control, the T/C (dose: 200.0 mg/kg/injection, schedule: Q01DX005 (ip), vehicle: saline) was 120 % of control and 106 % of control and the T/C (dose: 200.0 mg/kg/injection, schedule: Q01DX009 (ip), vehicle: saline) was 105 % of control. The T/C (dose: 225.0 mg/kg/injection, schedule: Q01DX001 (ip), vehicle: carboxymethylcellulose (CMC)) was 150 % of control, the T/C (dose: 225.0 mg/kg/injection, schedule: Q## X004 (ip), vehicle: carboxymethylcellulose (CMC)) was 119 % of control and the T/C (dose: 270.0 mg/kg/injection, schedule: Q01DX001 (ip), vehicle: carboxymethylcellulose (CMC)) was 124 % of control. The T/C (dose: 360.0 mg/kg/injection, schedule: Q01DX001 (sc), vehicle: carboxymethylcellulose (CMC)) was 95 % of control, the T/C (dose: 360.0 mg/kg/injection, schedule: Q## X003 (oral), vehicle: carboxymethylcellulose (CMC)) was 110 % of control and the T/C (dose: 400.0 mg/kg/injection, schedule: Q01DX001 (ip), vehicle: carboxymethylcellulose (CMC)) was 103 % of control. The T/C (dose: 400.0 mg/kg/injection, schedule: Q01DX009 (ip), vehicle: saline) was 94 % of control, the T/C (dose: 720.0 mg/kg/injection, schedule: Q01DX001 (oral), vehicle: carboxymethylcellulose (CMC)) was 109 % of control and the T/C (dose: 84.0 micrograms/kg/injection, schedule: Q01DX Z (ip), vehicle: saline) was 121 % of control. The T/C (dose: 120.0 micrograms/kg/injection, schedule: Q01DX Z (ip), vehicle: saline) was 115 % of control and the T/C (dose: 290.0 micrograms/kg/injection, schedule: Q01DX Z (ip), vehicle: saline) was 151 % of control.
